The experiment deals with BDF1 mice, P388 leukemia ip, median survival T/C. Description: NCI In Vivo Anticancer Drug Screen. Data for tumor model P388 Leukemia (intraperitoneal) in B6D2F1 (BDF1) mice. The following applies: endpoint: median survival time, higher = longer survival. An outline of the steps:
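Steps: implant the tumour, treat one group with compound and another with vehicle, record survival, then divide treated by control.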

[1] abbreviates: dose: 50.0 mg/kg/injection, schedule: Q01DX009 (ip), vehicle: saline with Tween-80.
The mark [2] stands for this setting: dose: 100.0 mg/kg/injection, schedule: Q01DX009 (ip), vehicle: saline with Tween-80.
Where [3] appears, read: dose: 100.0 mg/kg/injection, schedule: Q04DX003 (ip), vehicle: saline with Tween-80.
Where [4] appears, read: dose: 200.0 mg/kg/injection, schedule: Q01DX009 (ip), vehicle: saline with Tween-80.
Where [5] appears, read: dose: 50.0 mg/kg/injection, schedule: Q01DX009 (ip), vehicle: water.
Where [6] appears, read: dose: 100.0 mg/kg/injection, schedule: Q01DX009 (ip), vehicle: water.
Setting [7] is: dose: 400.0 mg/kg/injection, schedule: Q01DX009 (ip), vehicle: water.
The mark [8] stands for this setting: dose: 25.0 mg/kg/injection, schedule: Q04DX003 (ip), vehicle: saline.
Where [9] appears, read: dose: 50.0 mg/kg/injection, schedule: Q04DX003 (ip), vehicle: saline.
The mark [10] stands for this setting: dose: 100.0 mg/kg/injection, schedule: Q04DX003 (ip), vehicle: saline.
Setting [11] is: dose: 50.0 mg/kg/injection, schedule: Q04DX003 (ip), vehicle: saline with Tween-80.
[12] abbreviates: dose: 200.0 mg/kg/injection, schedule: Q04DX003 (ip), vehicle: saline with Tween-80.
The mark [13] stands for this setting: dose: 400.0 mg/kg/injection, schedule: Q04DX003 (ip), vehicle: saline with Tween-80.
Setting [14] is: dose: 50.0 mg/kg/injection, schedule: Q01DX009 (ip), vehicle: other.
[15] abbreviates: dose: 100.0 mg/kg/injection, schedule: Q01DX009 (ip), vehicle: other.
[16] abbreviates: dose: 25.0 mg/kg/injection, schedule: Q01DX009 (ip), vehicle: saline with Tween-80.
Setting [17] is: dose: 100.0 mg/kg/injection, schedule: Q01DX009 (ip), vehicle: saline.
Setting [18] is: dose: 200.0 mg/kg/injection, schedule: Q01DX009 (ip), vehicle: saline.
Where [19] appears, read: dose: 400.0 mg/kg/injection, schedule: Q01DX009 (ip), vehicle: saline.
[20] abbreviates: dose: 15.0 mg/kg/injection, schedule: Q01DX009 (ip), vehicle: saline with Tween-80.
[21] abbreviates: dose: 200.0 mg/kg/injection, schedule: Q04DX003 (ip), vehicle: saline.

Values joined by “and” are separate entries in the source; they are usually repeats but may differ in a detail not shown here. Identical values can stand only once. Inconclusive results and toxic doses are left out.

With `CCOC(=O)N1CCN(C(=O)OCC)CC1`, the T/C is 100 % of control under setting [1], 100 % of control under setting [2], 90 % of control under setting [3] and 95 % of control under setting [4].
As for `[N-]=[N+]=CC(=O)NCC(=O)NN`, the T/C (dose: 50.0 mg/kg/injection, schedule: Q01DX010 (ip), vehicle: water) is 120 % of control; the T/C (dose: 200.0 mg/kg/injection, schedule: Q01DX010 (ip), vehicle: water) was 166 % of control and 175 % of control; the T/C (dose: 400.0 mg/kg/injection, schedule: Q01DX010 (ip), vehicle: saline) is 181 % of control.
Turning to `Cc1cc(=O)c2cc(N(C)C)ccc2[nH]1`, the T/C is 110 % of control (dose: 0.78 mg/kg/injection, schedule: Q01DX009 (ip), vehicle: water); 100 % of control (dose: 1.56 mg/kg/injection, schedule: Q01DX009 (ip), vehicle: water); 101 % of control (dose: 3.12 mg/kg/injection, schedule: Q01DX009 (ip), vehicle: water); 93 % of control (dose: 6.25 mg/kg/injection, schedule: Q01DX009 (ip), vehicle: water); 94 % of control and 116 % of control (dose: 12.5 mg/kg/injection, schedule: Q01DX009 (ip), vehicle: water); 114 % of control (dose: 25.0 mg/kg/injection, schedule: Q01DX009 (ip), vehicle: water). In addition, the T/C reads like this: under setting [5], 91 % of control; (dose: 50.0 mg/kg/injection, schedule: Q04DX003 (ip), vehicle: water) 95 % of control; under setting [6], 107 % of control; (dose: 100.0 mg/kg/injection, schedule: Q04DX003 (ip), vehicle: water) 103 % of control; (dose: 200.0 mg/kg/injection, schedule: Q04DX003 (ip), vehicle: water) 103 % of control; under setting [7], 86 % of control. The T/C (dose: 400.0 mg/kg/injection, schedule: Q04DX003 (ip), vehicle: water) is 96 % of control.
For `CC[S+](CC)CC`, the T/C is 109 % of control (dose: 12.5 mg/kg/injection, schedule: Q04DX003 (ip), vehicle: saline); 100 % of control (dose: 25.0 mg/kg/injection, schedule: Q01DX001 (ip), vehicle: saline); 109 % of control under setting [8]; 100 % of control (dose: 50.0 mg/kg/injection, schedule: Q01DX001 (ip), vehicle: saline); 109 % of control under setting [9]; 100 % of control (dose: 100.0 mg/kg/injection, schedule: Q01DX001 (ip), vehicle: saline). Moreover, under setting [10], the T/C was 100 % of control.
With `CNC(=O)C(C)C1C(=O)/C(=C(O)/C=C\C(C)=C\C(C)C2OC3(C)OC(C=CC34CO4)C2C)C(=O)N1C1CCC(O)C(C)O1` (stereo not drawn), the T/C under setting [2] is 109 % of control; the T/C under setting [4] is 100 % of control; the T/C (dose: 400.0 mg/kg/injection, schedule: Q01DX009 (ip), vehicle: saline with Tween-80) is 109 % of control.
`CC1=C(C)C(=O)c2c(OC(=O)c3ccccc3)c(Cl)cc(OC(=O)c3ccccc3)c2C1=O`: the T/C (dose: 25.0 mg/kg/injection, schedule: Q04DX003 (ip), vehicle: saline with Tween-80) was 93 % of control; the T/C under setting [11] was 92 % of control; the T/C under setting [3] is 89 % of control and 94 % of control; the T/C under setting [12] was 93 % of control; the T/C under setting [13] is 109 % of control.
As for `FC(F)(F)C(F)(F)c1nc2nc(Cl)c(Cl)nc2[nH]1`, the T/C runs as follows: (dose: 25.0 mg/kg/injection, schedule: Q01DX009 (ip), vehicle: other) 100 % of control; under setting [14], 114 % of control.
`Cc1cccc(C(=O)Cc2cccc(C#N)c2)c1`: the T/C under setting [1] was 113 % of control, the T/C under setting [2] was 99 % of control and the T/C under setting [4] is 96 % of control.
With `CSc1cc(C)c(O)c(C)c1`, the T/C under setting [14] was 104 % of control; the T/C under setting [15] is 104 % of control; the T/C (dose: 200.0 mg/kg/injection, schedule: Q01DX009 (ip), vehicle: other) is 104 % of control.
Turning to `COc1cc2c3c(c1)/C(=N\N)CCN3CCC2`, the T/C reads like this: under setting [16], 110 % of control; under setting [1], 110 % of control; under setting [11], 113 % of control; under setting [2], 100 % of control; under setting [3], 95 % of control; under setting [12], 100 % of control.
As to `O=S(=O)(Nc1ccccn1)c1ccc(N(CCCl)CCCl)cc1`, the T/C runs as follows: under setting [1], 100 % of control; under setting [2], 95 % of control; under setting [4], 90 % of control.
Take `N#Cc1c(N)sc2c1CCCC2`: the T/C is, setting by setting: under setting [17], 109 % of control; under setting [18], 109 % of control; under setting [19], 104 % of control.
As for `COC(=O)C1SCc2ccccc2C1=O` (stereo not drawn), the T/C is, setting by setting: under setting [3], 104 % of control; under setting [12], 105 % of control; under setting [13], 105 % of control.
In the case of `O=P(N1CC1)(N1CC1)N1CC2CCC(CC2)C1`, the T/C was 163 % of control under setting [8] and 236 % of control (dose: 37.5 mg/kg/injection, schedule: Q04DX003 (ip), vehicle: saline).
On to `N#Cc1c(N)sc(N)c1C#N`, for which the T/C was 115 % of control (dose: 200.0 mg/kg/injection, schedule: Q01DX009 (ip), vehicle: Klucel (hydroxypropylcellulose) (HPC)) and 110 % of control (dose: 400.0 mg/kg/injection, schedule: Q01DX009 (ip), vehicle: Klucel (hydroxypropylcellulose) (HPC)).
`Nc1nc(SN=Nc2ccc(S(N)(=O)=O)cc2)c2[nH]cnc2n1`: the T/C was 120 % of control (dose: 3.75 mg/kg/injection, schedule: Q01DX009 (ip), vehicle: saline with Tween-80); 104 % of control (dose: 7.5 mg/kg/injection, schedule: Q01DX009 (ip), vehicle: saline with Tween-80); 91 % of control under setting [20].
For `NC(N)=NCCCC(=O)O`, the T/C is 104 % of control (dose: 50.0 mg/kg/injection, schedule: Q01DX009 (ip), vehicle: saline); 94 % of control and 103 % of control under setting [17]; 95 % of control under setting [10]; 101 % of control and 103 % of control under setting [18]; 100 % of control under setting [21]; 92 % of control and 106 % of control under setting [19]. Where the note is “dose: 400.0 mg/kg/injection, schedule: Q04DX003 (ip), vehicle: saline”, the T/C was 104 % of control.
Turning to `OC(CNc1ccc(CSc2ccccc2)cc1)c1ccccc1` (stereo not drawn), the T/C under setting [14] is 120 % of control and the T/C under setting [15] is 123 % of control.
Turning to `Cc1ccc(C[n+]2cccc3c([N+](=O)[O-])cccc32)cc1`, the T/C is 108 % of control (dose: 12.5 mg/kg/injection, schedule: Q01DX009 (ip), vehicle: saline with Tween-80); 103 % of control under setting [16]; 113 % of control under setting [1].
In the case of `CN(c1ccccc1)c1ccc([N+](=O)[O-])c2no[n+]([O-])c12`, the T/C is 106 % of control under setting [20] and 118 % of control (dose: 30.0 mg/kg/injection, schedule: Q01DX009 (ip), vehicle: saline with Tween-80).
`Oc1ccccc1C1N=NC2=C(CCCC2)N1O` (stereo not drawn): the T/C by setting is: (dose: 50.0 mg/kg/injection, schedule: Q01DX009 (ip), vehicle: Klucel (hydroxypropylcellulose) (HPC)) 99 % of control; (dose: 100.0 mg/kg/injection, schedule: Q01DX009 (ip), vehicle: Klucel (hydroxypropylcellulose) (HPC)) 93 % of control.
`CN(C)NP(=O)(NN(C)C)N(C)C`: the T/C was 100 % of control under setting [9], 113 % of control under setting [10] and 95 % of control under setting [21].
Consider `Cc1[nH]c(=O)[nH]c(=O)c1NCCO`, for which the T/C is 102 % of control under setting [5]; 109 % of control under setting [6]; 105 % of control (dose: 200.0 mg/kg/injection, schedule: Q01DX009 (ip), vehicle: water); 112 % of control under setting [7].

For the origin of these results see PubChem BioAssay AID328 (DTP/NCI, 2004).
